Measured values as given in patent EP1579851A2, “Rapid release encapsulated bioactive agents for inducing or potentiating an immune response and methods of use thereof” (CORIXA CORPORATION, priority 1997, dated 1999).

System: P815 cells
Test: In vivo CTL induction by P815-1 formulations (anti-P1A response), 51Cr release cytotoxicity assay
Design: species or system DBA/2 mice
Details: 30 µg peptide or equivalent, two weeks after a single immunization; restimulated with P815-2 pulsed splenocytes; Fig. 4a
Method: C57BL/6 mice were immunized subcutaneously with 15-30µg of soluble Ova or Ova encapsulated in microspheres (Ova/PLG). In the P1A system, DBA/2 mice were similarly immunized with P815-1 peptide alone or P815-1/PLG. PLG is defined herein as PLG1, which represents the polymeric composition of the single component system, or PLG2a-XX, which represents the polymeric composition of the blend component system. Antigens were suspended in 200 iL of PBS and injected on both flanks of the animal. As controls, mice were immunized with Ova admixed with alum as adjuvant. Fourteen to 21 days after the immunization, splenocytes were prepared as single cell suspensions and ~50'10^6 cells from each mouse were incubated with 2.5'10^6 irradiated (200,000 rad) EG7.Ova cells. […] After five days of culture, CTL activities were measured in a ^51Cr release cytotoxicity assay as described below.
To conduct a CTL assay, target cells were incubated with ^51Cr at 100 ìCi/10^6 cells at 37°C for 60 min. […] After 4 hours of incubation at 37°C, supernatant was collected from test wells using Skatron filter strips and counted on a Packard Cobra II a counter. Specific lysis was calculated as: % specific lysis =(Experimental release - Spontaneous release)/(Maximum release - Spontaneous release)X 100 [formula] […]

For “KKKRYSLEEILPYLGWLVFAWTTSKKK [soluble P815-1 peptide, 28 amino acid peptide, residues 28-49 of the P1A antigen with 3 lysine residues added to both termini]”, the “CTL activity of splenocytes against P815 cells” value was “Minimal CTL priming”.
